This passage reports EC50 results from patent US9593123B2, “Triazolo[4,5-D]pyrimidine derivatives” (Hoffmann-La Roche Inc., priority 2013, dated 2017).

For assay [1], the target named is human CB1 receptor (Homo sapiens (Human), UniProt P21554). Briefly: cAMP assay, CHO cells expressing human CB1 receptors. The class given is cell-based. The following applies: functional cAMP assay, read-out: CB1 hcAMP EC50. Here is the method: (§1) CHO cells expressing human CB1 or CB2 receptors are seeded 17-24 hours prior to the experiment 50.000 cells per well in a black 96 well plate with flat clear bottom (Corning Costar #3904) in DMEM (Invitrogen No. 31331), 1×HT supplement, with 10% fetal calf serum and incubated at 5% CO2 and 37° C. in a humidified incubator. The growth medium was exchanged with Krebs Ringer Bicarbonate buffer with 1 mM IBMX and incubated at 30° C. for 30 min. Compounds were added to a final assay volume of 100 μl and incubated for 30 min at 30° C. Using the cAMP-Nano-TRF detection kit the assay (Roche Diagnostics) was stopped by the addition of 50 μl lysis reagent (Tris, NaCl, 1.5% Triton X100, 2.5% NP40, 10% NaN3) and 50 μl detection solutions (20 μM mAb Alexa700-cAMP 1:1, and 48 μM Ruthenium-2-AHA-cAMP) and shaken for 2 h at room temperature. The time-resolved energy transfer is measured by a TRF reader (Evotec Technologies GmbH), equipped with a ND:YAG laser as excitation source. The plate is measured twice with the excitation at 355 nm and at the emission with a delay of 100 ns and a gate of 100 ns, total exposure time 10 s at 730 (bandwidth 30 nm) or 645 nm (bandwidth 75 nm), respectively. The FRET signal is calculated as follows: FRET=T730-Alexa730-P(T645-B645) with P=Ru730-B730/Ru645-B645, where T730 is the test well measured at 730 nM, T645 is the test well measured at 645 nm, B730 and B645 are the buffer controls at 730 nm and 645 nm, respectively. cAMP content is determined from the function of a standard curve spanning from 10 μM to 0.13 nM cAMP.
Chain of human CB1 receptor (P21554 whole entry): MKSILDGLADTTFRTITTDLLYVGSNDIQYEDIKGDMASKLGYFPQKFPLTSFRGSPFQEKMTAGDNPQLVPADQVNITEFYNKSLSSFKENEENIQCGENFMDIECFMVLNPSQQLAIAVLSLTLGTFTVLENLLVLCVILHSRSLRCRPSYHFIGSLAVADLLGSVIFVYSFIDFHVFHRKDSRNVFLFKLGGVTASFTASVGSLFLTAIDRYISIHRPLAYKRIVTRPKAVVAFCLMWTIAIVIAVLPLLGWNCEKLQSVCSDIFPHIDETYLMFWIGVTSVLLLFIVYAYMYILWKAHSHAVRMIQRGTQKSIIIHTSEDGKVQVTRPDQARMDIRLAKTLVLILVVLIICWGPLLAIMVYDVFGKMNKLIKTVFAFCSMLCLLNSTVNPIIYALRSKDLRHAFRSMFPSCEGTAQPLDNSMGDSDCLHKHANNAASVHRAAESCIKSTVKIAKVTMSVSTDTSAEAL
(§2) EC50 values were determined using Activity Base analysis (ID Business Solution, Limited). The EC50 values for a wide range of cannabinoid agonists generated from this assay were in agreement with the values published in the scientific literature.

Assay [2] deals with human CB2 receptor (Homo sapiens (Human), UniProt P34972). Briefly: cAMP assay, CHO cells expressing human CB2 receptors. It counts as cell-based. The following applies: functional cAMP assay, read-out: CB2 hcAMP EC50. Here is the method:
as §1, §2

Chain of human CB2 receptor (P34972 whole entry): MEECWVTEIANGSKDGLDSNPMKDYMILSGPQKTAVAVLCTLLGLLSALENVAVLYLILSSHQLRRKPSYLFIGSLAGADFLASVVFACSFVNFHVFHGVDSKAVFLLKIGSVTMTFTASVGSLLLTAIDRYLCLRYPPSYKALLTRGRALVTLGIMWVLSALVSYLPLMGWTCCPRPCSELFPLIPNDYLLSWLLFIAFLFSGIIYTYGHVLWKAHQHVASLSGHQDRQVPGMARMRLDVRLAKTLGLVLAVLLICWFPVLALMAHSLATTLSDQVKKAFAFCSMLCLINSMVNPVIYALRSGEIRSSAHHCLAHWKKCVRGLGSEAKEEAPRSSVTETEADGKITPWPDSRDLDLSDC

`Cn1nnnc1Cn1nnc2c(N3CCC(F)(F)C3)nc(OCC(C)(C)C)nc21` [Example 65, 7-(3,3-Difluoropyrrolidin-1-yl)-5-(2,2-dimethylpropoxy)-3-[(1-methyltetrazol-5-yl)methyl]triazolo[4,5-d]pyrimidine]: the concentration for a half-maximal effect (EC50) in assay [1] is more than 10000 nM; in assay [2], 11.9 nM.
The corresponding values for `CC(C)CSc1nc(N2CCC(F)(F)C2)c2nnn(Cc3ccccc3Cl)c2n1` [Example 92, 3-[(2-Chlorophenyl)methyl]-7-(3,3-difluoropyrrolidin-1-yl)-5-(2-methylpropylsulfanyl)triazolo[4,5-d]pyrimidine] are more than 10000 nM and 2.5 nM.
The corresponding values for `FC1(F)CCN(c2nc(OCC3CC3)nc3c2nnn3Cc2ccccc2Cl)C1` [Example 47, 3-[(2-Chlorophenyl)methyl]-5-(cyclopropylmethoxy)-7-(3,3-difluoropyrrolidin-1-yl)triazolo[4,5-d]pyrimidine] are more than 10000 nM and 3.6 nM.
On the same counts, the results for `OCCSc1nc(N2CCC(F)(F)C2)c2nnn(Cc3ccccc3Cl)c2n1` [Example 89, 2-[3-[(2-Chlorophenyl)methyl]-7-(3,3-difluoropyrrolidin-1-yl)triazolo[4,5-d]pyrimidin-5-yl]sulfanylethanol] are more than 10000 nM and 7.4 nM.
`COCCS(=O)(=O)c1nc(N2CCC(F)(F)C2)c2nnn(Cc3ccccc3Cl)c2n1` [Example 96, 3-[(2-Chlorophenyl)methyl]-7-(3,3-difluoropyrrolidin-1-yl)-5-(2-methoxyethylsulfonyl)triazolo[4,5-d]pyrimidine]: the EC50 was more than 10000 nM in assay [1] and 5.1 nM in assay [2].
The corresponding values for `CC(C)Oc1nc(N2CCC(F)(F)C2)c2nnn(Cc3ccccc3Cl)c2n1` [Example 55, 3-[(2-Chlorophenyl)methyl]-7-(3,3-difluoropyrrolidin-1-yl)-5-propan-2-yloxytriazolo [4,5-d]pyrimidine] are more than 10000 nM and 1.2 nM.
On the same counts, the results for `CCCCOc1nc(N2CCC(F)(F)C2)c2nnn(Cc3ccccc3Cl)c2n1` [Example 45, 5-Butoxy-3-[(2-chlorophenyl)methyl]-7-(3,3-difluoropyrrolidin-1-yl)triazolo[4,5-d]pyrimidine] are more than 10000 nM and 1.2 nM.
In the case of `C[C@H](Oc1nc(N2CCC(F)(F)C2)c2nnn(Cc3ccccc3C(F)(F)F)c2n1)C(F)(F)F` [Example 68, 7-(3,3-Difluoropyrrolidin-1-yl)-3-[[2-(trifluoromethyl)phenyl]methyl]-5-[(2S)-1,1,1-trifluoropropan-2-yl]oxytriazolo[4,5-d]pyrimidine], the half-maximal effective concentration (EC50) is more than 10000 nM in assay [1] and 0.4 nM in assay [2].
`FC1(F)CCN(c2nc(NC3CCC3)nc3c2nnn3Cc2ccccc2Cl)C1` [Example 11, 3-[(2-Chlorophenyl)methyl]-N-cyclobutyl-7-(3,3-difluoropyrrolidin-1-yl)triazolo[4,5-d]pyrimidin-5-amine]: the values for the EC50 in assay [1] and in assay [2] were more than 10000 nM and 2.6 nM, respectively.
On the same counts, the results for `CC(O)CSc1nc(N2CCC(F)(F)C2)c2nnn(Cc3ccccc3Cl)c2n1` (centres unmarked) [Example 90, 1-[3-[(2-Chlorophenyl)methyl]-7-(3,3-difluoropyrrolidin-1-yl)triazolo[4,5-d]pyrimidin-5-yl]sulfanylpropan-2-ol] are more than 10000 nM and 15.6 nM.
The corresponding values for `C[C@@H](Oc1nc(N2CCC(F)(F)C2)c2nnn(Cc3ccccc3Cl)c2n1)C(F)(F)F` [Example 51, 3-[(2-Chlorophenyl)methyl]-7-(3,3-difluoropyrrolidin-1-yl)-5-[(2R)-1,1,1-trifluoropropan-2-yl]oxytriazolo[4,5-d]pyrimidine] are more than 10000 nM and 2.1 nM.
The corresponding values for `CC(=O)N[C@H]1CCN(c2nc(OCC(C)(C)C)nc3c2nnn3Cc2ccccc2Cl)C1` [Example 77, N-[(3S)-1-[3-[(2-Chlorophenyl)methyl]-5-(2,2-dimethylpropoxy)triazolo[4,5-d]pyrimidin-7-yl]pyrrolidin-3-yl]acetamide] are more than 10000 nM and 58.2 nM.
As to `FC(F)(F)COc1nc(N2CCC(F)(F)C2)c2nnn(Cc3ccccc3Cl)c2n1` [Example 40, 3-[(2-Chlorophenyl)methyl]-7-(3,3-difluoropyrrolidin-1-yl)-5-(2,2,2-trifluoroethoxy) triazolo[4,5-d]pyrimidine], the EC50 is more than 10000 nM in assay [1] and 6.1 nM in assay [2].
On the same counts, the results for `CC(C)(C)COc1nc(N2CCC(F)(F)C2)c2nnn(Cc3ccccc3S(C)(=O)=O)c2n1` [Example 66, 7-(3,3-Difluoropyrrolidin-1-yl)-5-(2,2-dimethylpropoxy)-3-[(2-methylsulfonylphenyl)methyl]triazolo[4,5-d]pyrimidine] are more than 10000 nM and 3.9 nM.
The corresponding values for `FC(F)COc1nc(N2CCC(F)(F)C2)c2nnn(Cc3ccccc3Cl)c2n1` [Example 43, 3-[(2-Chlorophenyl)methyl]-5-(2,2-difluoroethoxy)-7-(3,3-difluoropyrrolidin-1-yl)triazolo[4,5-d]pyrimidine] are more than 10000 nM and 26.4 nM.
With `CC(=O)N[C@H]1CCN(c2nc(NC(C)(C)C)nc3c2nnn3Cc2ncccc2Cl)C1` [Example 27, N-[(3S)-1-[5-(tert-Butylamino)-3-[(3-chloropyridin-2-yl)methyl]triazolo[4,5-d]pyrimidin-7-yl]pyrrolidin-3-yl]acetamide], the EC50 in assay [1] was more than 10000 nM; in assay [2], 267 nM.
The corresponding values for `Cc1noc(Cn2nnc3c(N4CC[C@@](C)(O)C4)nc(N4CCOCC4)nc32)n1` [Example 39, (3R)-3-Methyl-1-[3-[(3-methyl-1,2,4-oxadiazol-5-yl)methyl]-5-morpholin-4-yltriazolo[4,5-d]pyrimidin-7-yl]pyrrolidin-3-ol] are more than 10000 nM and 301 nM.
Take `CC(C)(C)CNc1nc(N2CCC(F)(F)C2)c2nnn(Cc3ccccc3Cl)c2n1` [Example 16, 3-[(2-Chlorophenyl)methyl]-7-(3,3-difluoropyrrolidin-1-yl)-N-(2,2-dimethylpropyl) triazolo[4,5-d]pyrimidin-5-amine]: the values for the EC50 in assay [1] and in assay [2] were more than 10000 nM and 3.1 nM, respectively.
On the same counts, the results for `Cn1nnnc1Cn1nnc2c(N3CC[C@H](O)C3)nc(NC(C)(C)C)nc21` [Example 29, (3S)-1-[5-(tert-Butylamino)-3-[(1-methyltetrazol-5-yl)methyl]triazolo[4,5-d]pyrimidin-7-yl]pyrrolidin-3-ol] are more than 10000 nM and 48.6 nM.
Regarding `Cc1nonc1Cn1nnc2c(N3CCC(F)(F)C3)nc(C3CC3)nc21` [Example 5, 3-[[5-Cyclopropyl-7-(3,3-difluoropyrrolidin-1-yl)triazolo[4,5-d]pyrimidin-3-yl]methyl]-4-methyl-1,2,5-oxadiazole], the EC50 in assay [1] is more than 10000 nM; in assay [2], 1 nM.
The corresponding values for `C[C@H](Oc1nc(N2CCC(F)(F)C2)c2nnn(Cc3ccccc3Cl)c2n1)C(F)(F)F` [Example 42, 3-[(2-Chlorophenyl)methyl]-7-(3,3-difluoropyrrolidin-1-yl)-5-[(2S)-1,1,1-trifluoropropan-2-yl]oxytriazolo[4,5-d]pyrimidine] are more than 10000 nM and 3.3 nM.
On the same counts, the results for `CCSc1nc(N2CCC(F)(F)C2)c2nnn(Cc3ccccc3Cl)c2n1` [Example 82, 3-[(2-Chlorophenyl)methyl]-7-(3,3-difluoropyrrolidin-1-yl)-5-ethylsulfanyltriazolo [4,5-d]pyrimidine] are 183 nM and 0.7 nM.
On to `FC(F)(F)CSc1nc(N2CCC(F)(F)C2)c2nnn(Cc3ccccc3Cl)c2n1` [Example 83, 3-[(2-Chlorophenyl)methyl]-7-(3,3-difluoropyrrolidin-1-yl)-5-(2,2,2-trifluoroethylsulfanyl)triazolo[4,5-d]pyrimidine], for which the EC50 was more than 10000 nM in assay [1] and 1.9 nM in assay [2].
As to `CC(C)(C)Nc1nc(N2CC[C@H](O)C2)c2nnn(Cc3ccccc3Cl)c2n1` [Example 28, (3S)-1-[5-(tert-Butylamino)-3-[(2-chlorophenyl)methyl]triazolo[4,5-d]pyrimidin-7-yl]pyrrolidin-3-ol], the concentration giving a half-maximal response (EC50) was more than 10000 nM in assay [1] and 2.3 nM in assay [2].
The corresponding values for `COc1ccc(Cn2nnc3c(N4CC[C@H](O)C4)nc(NC(C)(C)C)nc32)cc1` [Example 19, (3S)-1-[5-(tert-Butylamino)-3-[(4-methoxyphenyl)methyl]triazolo[4,5-d]pyrimidin-7-yl]pyrrolidin-3-ol] are more than 10000 nM and 27.4 nM.
